Measured values reported in PMC7288138, “Development of Novel Analogs of the Monocarboxylate Transporter Ligand FACH and Biological Validation of One Potential Radiotracer for Positron Emission Tomography (PET) Imaging” (Molecules, 2020).
pIC50: −log10 of the molar value.

Biological target: T1, MCT1 (monocarboxylate transporter 1) (Rattus norvegicus, UniProt P53987)
T1 construct: gene Slc16a1
T1 sequence (P53987 1-494): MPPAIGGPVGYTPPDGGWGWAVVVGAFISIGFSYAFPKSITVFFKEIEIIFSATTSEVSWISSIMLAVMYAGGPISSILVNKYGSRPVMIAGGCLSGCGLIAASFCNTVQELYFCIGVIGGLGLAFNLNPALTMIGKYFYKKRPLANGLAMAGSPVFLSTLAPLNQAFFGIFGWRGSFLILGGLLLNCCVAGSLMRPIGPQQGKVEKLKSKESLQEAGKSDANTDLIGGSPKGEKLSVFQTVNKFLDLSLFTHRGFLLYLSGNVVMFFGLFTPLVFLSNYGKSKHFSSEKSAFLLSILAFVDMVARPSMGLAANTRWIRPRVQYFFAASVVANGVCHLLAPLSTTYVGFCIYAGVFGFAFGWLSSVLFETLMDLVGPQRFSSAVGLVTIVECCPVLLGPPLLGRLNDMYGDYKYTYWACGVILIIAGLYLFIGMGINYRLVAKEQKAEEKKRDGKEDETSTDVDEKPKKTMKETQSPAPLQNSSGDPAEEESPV
Experiment: […]lactate uptake inhibition in RBE4 rat brain endothelial cells (only MCT1 isoform expressed)
Type: cell-based

`COc1cc(N(c2ccccc2)c2cccc(F)n2)ccc1/C=C(\C#N)C(=O)O` [compound 2, (E)-2-Cyano-3-(4-((6-fluoropyridin-2-yl)(phenyl)amino)-2-methoxyphenyl)acrylic Acid] was tested, and the pIC50 was 6.56.

`CCCN(c1ccc(/C=C(\C#N)C(=O)O)c(OC)c1)c1cccc(F)n1` [compound 1, (E)-2-Cyano-3-(4-((6-fluoropyridin-2-yl)(propyl)amino)-2-methoxyphenyl)acrylic Acid] gave a pIC50 of 6.93.
